Experimental data taken from patent publication US20140087369A1, “INFECTION DETECTION METHODS AND SYSTEMS AND RELATED COMPOUNDS AND COMPOSITIONS” (priority 2010, published 2014).

Test system: viral neuraminidase
Assay type: biochemical, influenza virus
Conditions: pH 5.5

| Compound | enzymatic cleavage of the substrate and release of odorant (decrease of substrate signal, appearance of cleavage product signals) |
| --- | --- |
| Sodium (4-(4-hydroxy-3-methoxyphenyl)butan-2-one-5-acetamido-3,5-dideoxy-α-D-glycero-D-galacto-2-nonulopyranoside)onate [zingerone] | significant loss of peak at 508.3 amu |
| CC(=O)NC1C(O)CC(OCC2(C)CC2CC2CC3CC3(C)C2(C)C)(C(=O)O)OC1CC(O)CO [javanol, Sodium ([(1R,2S)-1-methyl-2-[[(1R,3S,5S)-1,2,2-trimethyl-3-bicyclo[3.1.0]hexanyl]methyl]cyclopropyl]methyl-5-acetamido-3,5-dideoxy-α-D-glycero-D-galacto-2-nonulopyranoside)onate] | substrate is still present |
